Consider four compounds from patent US20220151955A1, “KETAMINE FOR THE TREATMENT OF […] AND DISORDERS” (The Ketamine Research Foundation, priority 2019, published 2022).

The conditions of data set [1]: cited from earlier work.
In data set [2] the test system is women with postpartum depression. Particulars: cited from earlier work.
The conditions of data set [3]: in vivo; cited from earlier work.
The nature of data set [4]: Ketamine levels in the breast milk of lactating women after intramuscular ketamine hydrochloride. The class given is in vivo. The settings on record: 0.5 and 1.0 mg/kg intramuscular. How it is done: A study of the pharmacodynamics of ketamine in the breast milk of lactating women was performed. Ketamine levels in breast milk were quantified in lactating subjects over time. Four women were given intramuscular injections of ketamine hydrochloride at two doses: 0.5 mg/kg and 1.0 mg/kg at intervals of at least one week apart. Breast milk was collected in one subject at 3 hour intervals through 24 hours, and the succeeding three subjects at 3 hour intervals up to 12 hours. Subjects were of different weights and ethnic backgrounds.
Administered dosages of ketamine ranged from 28 mg to 76 mg. […] For subjects receiving the 0.5 mg/kg dose, the observed range for ketamine in the breast milk of the subject at the 9 to 12 hour collection period (total expression of milk during the period) ranged from 0.09 mg to 1.66 mg. For subjects receiving the 1.0 mg/kg dose, the observed range for ketamine in the breast milk of the subject at the 9 to 12 hour collection period (total expression of milk during the period) ranged from 1.067 mg to 6.22 mg. The highest ketamine level (6.22 mg) was observed following administration of a 76 mg dose of ketamine hydrochloride.

Consider `CN[C@]1(c2ccccc2Cl)CCCCC1=O` [S-(+)-ketamine], for which the “potency relative to R-(−)-ketamine” value in data set [1] (for use in anesthesia) is reported as “twice as potent as R-(−)-ketamine”.
As to `CC(=O)[C@H]1CC[C@H]2[C@@H]3CC[C@H]4C[C@H](O)CC[C@]4(C)[C@H]3CC[C@]12C` [brexanolone], the “women no longer clinically depressed” value in data set [2] (within 60 hours, intravenous over 60 hours, two clinical trials of about 250 women, placebo 25 percent) is recorded as 50%. The “adverse effects experienced by some women” value in data set [2] (women who received brexanolone) is “excessive sedation and sudden loss of consciousness”.
As for `CNC1(c2ccccc2Cl)CCCCC1=O` (centres unmarked) [ketamine], the half-life result in data set [3] was “less than two and a half hours”. Moreover, the “levels detectable in breast milk at 12 hours” value in data set [4] is recorded as “only minimal levels”.
On to `NC1(c2ccccc2Cl)CCCCC1=O` (centres unmarked) [norketamine], for which the “potency relative to ketamine (estimated)” value in data set [1] (active metabolite, as stated in Example 1) is recorded as “one-third the potency of ketamine”. The “potency relative to ketamine” value in data set [1] (for use in anesthesia) is “one third the potency of ketamine”. The “levels detectable in breast milk at 12 hours” value in data set [4] is “only minimal levels”.
